# Test results: patent publication US12725435B2, “FIM-CNN for detection of viable cells and/or particulate impurities” (Coriolis Pharma Research GmbH, priority 2021, dated 2026)
# Experiments:
# [1] = system: Jurkat cells; experiment: Annexin V-FITC / PI fluorescence-based flow cytometry assay (apoptosis, necrosis)
# Protocol: (§1) Cell apoptosis and necrosis were determined by imaging flow cytometry after labelling of the cells with FITC and PI. Sample preparation was carried out according to the Dead Cell Apoptosis Kit instructions. After incubation for 15 min in the dark at room temperature samples were kept on wet ice until analysis. After adjusting the excitation power of the FlowSight imaging flow cytometer to 4 mW, the same instrument settings as described in for the calcein-AM assay above was used. Brightfield as well as fluorescence images in channels 02 (532/55 nm) for FITC and channel 4 (610/30 nm) for PI were recorded. Appropriate morphological filters based on mean intensity, area, aspect ratio and modulation from channel 09 were applied to discriminate between single cells and cell aggregates or debris particles. Once single cells were selected based on brightfield images, mean intensity values from channel 02 (fluorescence) were plotted against the particle area (erode mask) where the positively stained cells were classified as viable.
# For selection of necrotic cells, two separate methods were used to induce cell necrosis. […] Images of debris particles were manually selected from measured suspensions of cells submitted to vortexing for approximately 2 min or two freeze-thaw cycles (−140° C.-37° C.).
# [2] = calcein-AM assay of cell viability (imaging flow cytometry); type: cell-based; details: human, Jurkat cells; irrespective of DMSO content (2.5%, 5%, 10% v/v) and time point (T0, freeze-thaw, control)
# Protocol: Freeze-thaw stress. DMSO, cooled on wet ice, was slowly added to cell suspensions (placed on wet ice) to reach a target concentration 1%, 2.5%, 5% and 10% (v/v) at a cell concentration of 1×10^6 cells/ml. Further, five 1-ml aliquots were prepared in 1.8-ml Nalgene cryovials, which were submitted to freezing at −18° C. for 3 hours. This amount of time was sufficient for complete freezing of the aliquots. Prior to analysis, the samples were thawed for 2 min at 37° C., pooled and washed with fresh RPMI medium. Control samples were stored at 20° C. for 3 hours and were otherwise treated identically as the freeze-thawed samples.
# Imaging flow cytometry. To assess cell viability based on cell metabolism, imaging flow cytometry was used in combination with the membrane-permeable dye calcein-AM (calcein-AM assay), at a final concentration of 6.3 nM in the sample to be analyzed. […] Subsequently, samples were analyzed by using an Amnis FlowSight imaging flow cytometer (Luminex, Seattle, USA) and data was analyzed using IDEAS 6.2.183 (Luminex, Seattle, USA) image analysis software. […] The side scatter laser was set to 10 mW and the 488 nm fluorescence excitation laser was set to 12 mW. Images of the calcein-AM stained cells were recorded in channel 02 (532/55 nm). […]
# [3] = system: Jurkat cells; experiment: FIM-CNN (FlowCam) cell counts and viability after forced degradation; type: cell-based
# Protocol: Freeze-thaw stress. […] Further, five 1-ml aliquots were prepared in 1.8-ml Nalgene cryovials, which were submitted to freezing at −18° C. for 3 hours. This amount of time was sufficient for complete freezing of the aliquots. Prior to analysis, the samples were thawed for 2 min at 37° C., pooled and washed with fresh RPMI medium. Control samples were stored at 20° C. for 3 hours and were otherwise treated identically as the freeze-thawed samples. Shaking stress. […] The cryovials were submitted to shaking by constant horizontal agitation at 185 rpm at 25° C. by using an IC 4000 shaker (IKA, Germany). Analysis of cell suspensions of pooled cell aliquots was performed following 3 hours of shaking. Control samples were stored statically and protected from light at 25° C. in cryovials, and subsequently pooled. Flow imaging microscopy (FlowCam, FIM). Cells (viable and necrotic) and debris particles were quantified by using a FlowCam 8100 (Fluid Imaging Technologies, Scarborough, USA) equipped with a 50-μflow cell. […] In total, a sample volume of 140 μL was measured with an efficiency of approximately 63% (i.e., the imaged sample volume was ca. 87 μL). Particles imaged within the flow cell were detected with intensity thresholds of 12 for light and dark pixels. […] Collected images were not sorted by using any morphological filters and samples were measured in triplicate, unless otherwise stated. Image analysis using convolutional neural networks. Particle images captured by using FlowCam were analyzed by using convolutional neural networks (CNN). […] Briefly, the VGG-19 network using rectified linear unit activation functions, punctuated with max-pooling and dropout layers, was pre-trained on the ImageNet dataset (http://image-netorg). The re-training of the network was performed with the first ten layers frozen in order to save computation time and improve accuracy of the model by preserving its pre-learned feature recognition capabilities. For fine-tuning the dataset was split into an 8:1:1 ratio for training, validation and testing, respectively. […]
# [4] = system: Jurkat cells; experiment: in vitro
# Excerpt: (§2) Generation of particle images for population discrimination. The CNN was retrained on manually labelled images (4,000-4,500) of each of the three populations: viable cells, necrotic cells and debris particles. […] For selection of necrotic cells, two separate methods were used to induce cell necrosis. […] In order to further define image populations of viable and necrotic cells for the network fine-tuning, morphological parameters, such as aspect ratio, circle fit, convexity, sigma intensity and symmetry, of the two populations were used. Only particles (cells) of morphological parameter values falling between the 10th and 90th percentile of the manually selected population as viable and necrotic cells were taken for input to the training of the model. Images of debris particles were manually selected from measured suspensions of cells submitted to vortexing for approximately 2 min or two freeze-thaw cycles (−140° C.-37° C.).
# as §1
# [5] = in vitro; details: human
# Excerpt: as §2, §1
# [6] = staurosporin 1 μM to 500.000 cells/mL, Annexin V-FITC & PI double staining
# [7] = cell suspensions frozen with 2.5% (v/v) DMSO
smiles,measurement,setting,value
CN[C@@H]1C[C@H]2O[C@@](C)([C@@H]1OC)n1c3ccccc3c3c4c(c5c6ccccc6n2c5c31)C(=O)NC4 [staurosporin],necrotic cells,[1]; [6],around 6%
same,viable cells,[1]; [6],~ 2%
"C[S+](C)[O-] [DMSO, dimethyl sulfoxide]",increase in apoptotic cell content,"[1]; human, 3 h",~2 fold
same,viability,[2],85 to 90%
same,reduction of cell counts,"[3]; 0% and 1% (v/v) DMSO, one freeze-thaw cycle (−18° C. 3 hours, thawing 2 min at 37° C.)",> 98%
same,losses in viability (FIM-CNN assay),[3]; [7],ca. 20%
same,toxic effects of DMSO (FIM),"[3]; exposure of 3 hours at RT, 10% (v/v)",loss of cell viability
same,toxic effects of DMSO (PI assay),[4],loss of cell viability
same,drop in cell viability (PI assay),"[4]; 5% and 10% (v/v) DMSO, freeze-thawed and control samples compared to T0",ca. 10%
same,losses in viability (PI assay),[4]; [7],ca. 20%
"CCO [ethanol, reference compound]","viability at 90 min, 10 % (v/v)",[5],12.8%
